According to the supplement of paper PMC11451515:

Legend:
Settings in all cases: 48 h
SEM cells [1] = test: cell viability relative to DMSO control; higher = less cytotoxic
Outline: (§1)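 NOMO1, SEM and P12-Ichikawa leukemia cells spent at least four passages adapting to each medium before use. They were seeded at 500 cells/well (NOMO1, SEM) or 1000 cells/well (P12-Ichikawa) in 5 μl in 1536-well plates and pin-dosed with library compounds in DMSO at 11 threefold steps from 47 μM down to 0.79 nM. After 48 h at 37°C, CellTiter-Glo One luminescence was read. Viability is reported as a percentage of the DMSO wells on each plate, with cell-free wells as background.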

NOMO1 [2] = test: AUC of viability dose-response curve (% viability x log10 dose units); higher = less sensitive
Outline: (§2)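 Viability of medium-adapted leukemia cells was measured by CellTiter-Glo One luminescence after 48 h at 37°C with library compounds in DMSO. Doses were 11 threefold steps from 47 μM to 0.79 nM, in 1536-well plates at 500 or 1000 cells/well. Signals were normalised per plate to DMSO and cell-free wells and fitted with a four-parameter log-logistic model on log10 dose. Area under the curve was integrated by trapezoidal rule, with curves exceeding full viability scaled and failed quality-control curves removed.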

P12-Ichikawa [3] = test: as above
Outline: as §2

NOMO1 [4] = test: cell viability relative to DMSO control; higher = less cytotoxic
Outline: as §1

P12-Ichikawa [5] = test: as above
Outline: as §1

SEM cells [6] = test: AUC of viability dose-response curve (% viability x log10 dose units); higher = less sensitive
Outline: as §2

N#Cc1ccc(C(c2ccc(C#N)cc2)n2cncn2)cc1
SEM cells [1], HPLM + 10% dialyzed FBS
Settings	cell viability [%]
0.000781 µM	121
0.00234 µM	118
0.00702 µM	131
0.0211 µM	130
0.0632 µM	40.1
0.19 µM	129
0.569 µM	140
1.71 µM	131
5.12 µM	54.4
15.4 µM	110
46.1 µM	111

AUC of viability dose-response curve
Settings	HPLM + 10% dialyzed FBS	RPMI 5 mM glucose + 10% FBS	RPMI 5 mM glucose + 10% dialyzed FBS
NOMO1 [2]	442	450	466
P12-Ichikawa [3]	461	460	451

C[C@@H](O)[C@@H]1NC(=O)[C@H](CCCCN)NC(=O)[C@@H](Cc2c[nH]c3ccccc23)NC(=O)[C@H](Cc2ccccc2)NC(=O)[C@@H](NC(=O)[C@H](N)Cc2ccccc2)CSSC[C@@H](C(=O)N[C@H](CO)[C@@H](C)O)NC1=O
cell viability [%]
Settings	NOMO1 [4]	P12-Ichikawa [5]	SEM cells [1]
HPLM + 10% dialyzed FBS, 0.000781 µM	75.7	84.1	71.3
HPLM + 10% dialyzed FBS, 0.00234 µM	75	94.4	83.6
HPLM + 10% dialyzed FBS, 0.00702 µM	90	88.9	87.8
HPLM + 10% dialyzed FBS, 0.0211 µM	88.1	90.5	91
HPLM + 10% dialyzed FBS, 0.0632 µM	103	91.7	99
HPLM + 10% dialyzed FBS, 0.19 µM	83.6	94.1	78.3
HPLM + 10% dialyzed FBS, 0.569 µM	91.8	91.3	83.4
HPLM + 10% dialyzed FBS, 1.71 µM	82.5	95.8	91.2
HPLM + 10% dialyzed FBS, 5.12 µM	74.2	89.4	97.5
HPLM + 10% dialyzed FBS, 15.4 µM	81.8	92	97.7
HPLM + 10% dialyzed FBS, 46.1 µM	75.9	95	84.6
RPMI 5 mM glucose + 10% FBS, 0.000781 µM	74.6	76.4	67.4
RPMI 5 mM glucose + 10% FBS, 0.00234 µM	79.4	85.1	94.4
RPMI 5 mM glucose + 10% FBS, 0.00702 µM	83.1	83	83.2
RPMI 5 mM glucose + 10% FBS, 0.0211 µM	79.3	87.2	105
RPMI 5 mM glucose + 10% FBS, 0.0632 µM	83.3	81.7	90.6
RPMI 5 mM glucose + 10% FBS, 0.19 µM	81.6	81.3	55.5
RPMI 5 mM glucose + 10% FBS, 0.569 µM	84.5	83	82.6
RPMI 5 mM glucose + 10% FBS, 1.71 µM	76.8	83.8	91.6
RPMI 5 mM glucose + 10% FBS, 5.12 µM	80.7	86.4	101
RPMI 5 mM glucose + 10% FBS, 15.4 µM	81.1	78.8	90.4
RPMI 5 mM glucose + 10% FBS, 46.1 µM	83.5	81	70.4
RPMI 5 mM glucose + 10% dialyzed FBS, 0.000781 µM	86.9	83	64.8
RPMI 5 mM glucose + 10% dialyzed FBS, 0.00234 µM	89	80.8	81
RPMI 5 mM glucose + 10% dialyzed FBS, 0.00702 µM	87	85.7	84.5
RPMI 5 mM glucose + 10% dialyzed FBS, 0.0211 µM	92.2	82.6	86.1
RPMI 5 mM glucose + 10% dialyzed FBS, 0.0632 µM	93.6	84.9	78.7
RPMI 5 mM glucose + 10% dialyzed FBS, 0.19 µM	85.3	79.8	75.1
RPMI 5 mM glucose + 10% dialyzed FBS, 0.569 µM	101	80.1	81.7
RPMI 5 mM glucose + 10% dialyzed FBS, 1.71 µM	92.5	84.7	74.7
RPMI 5 mM glucose + 10% dialyzed FBS, 5.12 µM	91.2	79.8	97.1
RPMI 5 mM glucose + 10% dialyzed FBS, 15.4 µM	103	79.9	85.6
RPMI 5 mM glucose + 10% dialyzed FBS, 46.1 µM	112	79.7	67.3

AUC of viability dose-response curve
Settings	HPLM + 10% dialyzed FBS	RPMI 5 mM glucose + 10% FBS	RPMI 5 mM glucose + 10% dialyzed FBS
P12-Ichikawa [3]	438	395	391
SEM cells [6]	422	404	380

CC(C)Cc1ccc(C(C)C(=O)O)cc1 (configuration not stated)
cell viability [%]
Settings	NOMO1 [4]	P12-Ichikawa [5]	SEM cells [1]
HPLM + 10% dialyzed FBS, 0.000781 µM	84.6	86.1	68.7
HPLM + 10% dialyzed FBS, 0.00234 µM	106	86	84.7
HPLM + 10% dialyzed FBS, 0.00702 µM	96.7	92.1	80.1
HPLM + 10% dialyzed FBS, 0.0211 µM	115	90	78.6
HPLM + 10% dialyzed FBS, 0.0632 µM	95.6	91.9	84.9
HPLM + 10% dialyzed FBS, 0.19 µM	102	98.2	90.7
HPLM + 10% dialyzed FBS, 0.569 µM	90.6	92.8	82.2
HPLM + 10% dialyzed FBS, 1.71 µM	102	95.4	78.3
HPLM + 10% dialyzed FBS, 5.12 µM	82	96.6	71.3
HPLM + 10% dialyzed FBS, 15.4 µM	91.4	92.4	85.6
HPLM + 10% dialyzed FBS, 46.1 µM	89.7	95.4	26.4
RPMI 5 mM glucose + 10% FBS, 0.000781 µM	79.4	90.4	90.1
RPMI 5 mM glucose + 10% FBS, 0.00234 µM	93.9	90.9	69.4
RPMI 5 mM glucose + 10% FBS, 0.00702 µM	94.3	84.5	80.9
RPMI 5 mM glucose + 10% FBS, 0.0211 µM	87.3	85	91.3
RPMI 5 mM glucose + 10% FBS, 0.0632 µM	97.2	87.5	89.4
RPMI 5 mM glucose + 10% FBS, 0.19 µM	83.9	89.2	81.9
RPMI 5 mM glucose + 10% FBS, 0.569 µM	97.9	81.8	98.8
RPMI 5 mM glucose + 10% FBS, 1.71 µM	86.7	90.3	87
RPMI 5 mM glucose + 10% FBS, 5.12 µM	83.9	82.1	95.4
RPMI 5 mM glucose + 10% FBS, 15.4 µM	86.1	77.6	77.2
RPMI 5 mM glucose + 10% FBS, 46.1 µM	89.6	81	22.8
RPMI 5 mM glucose + 10% dialyzed FBS, 0.000781 µM	85.6	86.7	93.5
RPMI 5 mM glucose + 10% dialyzed FBS, 0.00234 µM	83	91.6	84.4
RPMI 5 mM glucose + 10% dialyzed FBS, 0.00702 µM	77.8	83.9	89.5
RPMI 5 mM glucose + 10% dialyzed FBS, 0.0211 µM	85.4	83.2	90.9
RPMI 5 mM glucose + 10% dialyzed FBS, 0.0632 µM	72.7	88.3	87.5
RPMI 5 mM glucose + 10% dialyzed FBS, 0.19 µM	82.2	89.8	98.3
RPMI 5 mM glucose + 10% dialyzed FBS, 0.569 µM	76.5	79.1	99.5
RPMI 5 mM glucose + 10% dialyzed FBS, 1.71 µM	91.6	81.7	98.6
RPMI 5 mM glucose + 10% dialyzed FBS, 5.12 µM	81.9	80.9	100
RPMI 5 mM glucose + 10% dialyzed FBS, 15.4 µM	80.5	84.5	77.5
RPMI 5 mM glucose + 10% dialyzed FBS, 46.1 µM	82.1	95.6	35.7

AUC of viability dose-response curve
Settings	HPLM + 10% dialyzed FBS	RPMI 5 mM glucose + 10% FBS	RPMI 5 mM glucose + 10% dialyzed FBS
P12-Ichikawa [3]	442	408	410
SEM cells [6]	371	396	425
